Tests used:
[1] = test system: Pseudomonas aeruginosa PA14; assay: Antibacterial activity (MIC, ESCMID guidelines); assay type: cell-based; settings: for MIC: Pseudomonas aeruginosa, PA14; for antimicrobial activity (bacterial viability): up to 100 μM
Description: (§1) Given that the novel inhibitors contain a free thiol as a strong zinc binding group, we analyzed the selectivity of the diastereomeric mixtures 11 and 12 on six human matrix metalloproteases (MMPs) as putative off-targets.[53] […] Furthermore, we tested the impact of 11 and 12 on bacterial viability to ensure that these compounds are antivirulence agents and not antibiotics. […]
(§2) Selectivity and toxicity assays […]
Antimicrobial activity against P. aeruginosa PA14 was tested using ESCMID guidelines and […]

A549 = assay: Cytotoxicity MTT assay; assay type: cell-based, human; settings: A549, at 100 μM
Description: as §2
(§3) Cytotoxicity on human liver (HepG2), kidney (HEK293) and lung (A549) cells were performed using MTT assay and measuring the optical density (OD) photometrically at 570 nm in a FLUOstar Omega plate reader (BMG labtech, Ortenberg, Germany) as described previously. 6 […]
(§4) The A549 cell line, derived from human lung adenocarcinoma, was grown in Dulbecco's Modified Eagle Medium (DMEM) supplemented with 10% Fetal Bovine Serum (FBS) and 1% penicillin-streptomycin. […]

Cytotoxicity MTT assay [2] = assay type: cell-based, human; settings: human, A549 cells (lung)
Description: as §2, §3, §4

LecA = biological target: T1, LecA (Pseudomonas aeruginosa, UniProt Q05097); assay: Competitive binding assay for LecA based on fluorescence polarization; set-up: species or system P. aeruginosa
T1 construct: made in house; host or cells: E. coli (plasmid pET25-pail)
T1 sequence (Q05097 whole entry): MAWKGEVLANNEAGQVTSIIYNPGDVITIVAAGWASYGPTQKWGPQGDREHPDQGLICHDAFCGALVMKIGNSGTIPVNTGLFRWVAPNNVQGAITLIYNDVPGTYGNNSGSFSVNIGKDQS
Description: The four thiols 17, 18, 24 and 25 as well as three disulfides 26a, 26b and 27 were then evaluated for their activity against LecA using a competitive binding assay based on fluorescence polarization (Fig. 4B). […]
(§5) Expression and purification of LasB and LecA
LecA was expressed recombinantly using E. coli pET25-pail, whereas LasB was isolated from P. aeruginosa PA14 culture supernatant as described previously. 1,2
LecA labeling with fluorescein was performed in analogy to Sommer et al. 3 and Beshr et al.4 To this end fluorescein isothiocyanate (FITC) was freshly dissolved in carbonate-bicarbonate buffer with pH of 9.3 at a concentration of 3 mg mL-1. Subsequently, 66 µL of this FITC solution was combined with 1.4 mL of LecA at a concentration of 60 µM in carbonate-bicarbonate buffer, pH 9.3. The resulting mixture was then incubated at 25 °C with shaking at 500 rpm for 1 hour. Then, extensive washing with PBS/Ca2+ in a 5 kDa molecular weight cutoff centrifugal concentrator was performed to remove excess dye and buffer the labelled protein. […]
Competitive binding assay for LecA
The procedure for the fluorescence polarization-based competitive binding assay for LecA was performed as reported by Joachim et al. with modifications. 1 The assay was performed in TBS/Ca2+ buffer (20 mM Tris, 137 mM NaCl, 2.6 mM KCl at pH 7.4 supplemented with 1 mM CaCl 2 and contained 5% DMSO). The final protein concentration in the assay was 5 µM for LecA. Fluorescence intensities were recorded on a PheraStar FS plate reader (BMG Labtech GmbH, Germany) and polarization was calculated using MARS Data Analysis (BMG Labtech).
IC50 values were obtained from a four-parameter curve-fitting procedure. Averages and standard deviations were calculated from at least three independent experiments of technical

MMP-7 = biological target: T2, MMP-7 (Homo sapiens, UniProt P09237); assay: MMP selectivity assay (SensoLyte 520 Generic MMP Activity Kit); assay type: biochemical; settings: read-out: Percent inhibition at 100 µM, MMP-7, 100 µM
T2 construct: purchased AnaSpec (Fremont, CA, USA)
T2 sequence (P09237 95-267): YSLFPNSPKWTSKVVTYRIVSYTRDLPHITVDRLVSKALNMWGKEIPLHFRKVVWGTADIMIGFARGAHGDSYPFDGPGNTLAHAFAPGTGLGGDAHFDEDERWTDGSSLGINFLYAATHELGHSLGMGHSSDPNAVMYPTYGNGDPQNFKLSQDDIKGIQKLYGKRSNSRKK
Source text: as §1
(§6) Selectivity and toxicity assays
(§7) Human MMPs -1, -2, -3, -7, -8 and -14 along with the SensoLyte 520 Generic MMP Activity
(§8) Kit*Fluorimetric* were purchased from AnaSpec (Fremont, CA, USA). The inhibition assay

MMP-1 = biological target: T3, MMP-1 (Homo sapiens, UniProt P03956); assay: as above; assay type: biochemical; settings: read-out: Percent inhibition at 100 µM, MMP-1, 100 µM
T3 construct: purchased AnaSpec (Fremont, CA, USA)
T3 sequence (P03956 100-469): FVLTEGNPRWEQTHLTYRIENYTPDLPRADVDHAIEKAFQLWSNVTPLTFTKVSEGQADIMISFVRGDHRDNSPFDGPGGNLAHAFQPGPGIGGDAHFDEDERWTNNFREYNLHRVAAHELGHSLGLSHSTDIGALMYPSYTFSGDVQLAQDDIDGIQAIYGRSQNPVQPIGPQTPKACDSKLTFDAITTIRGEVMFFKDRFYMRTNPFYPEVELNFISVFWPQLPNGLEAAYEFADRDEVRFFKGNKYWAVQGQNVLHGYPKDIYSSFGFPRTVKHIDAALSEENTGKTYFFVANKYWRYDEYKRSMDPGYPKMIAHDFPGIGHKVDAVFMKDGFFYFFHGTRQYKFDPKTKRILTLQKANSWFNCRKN
Source text: as §1, §6, §7, §8

MMP-14 = biological target: T4, MMP-14 (Homo sapiens, UniProt P50281); assay: as above; assay type: biochemical; settings: read-out: Percent inhibition at 100 µM, MMP-14, 100 µM
T4 construct: purchased AnaSpec (Fremont, CA, USA)
Source text: as §1, §6, §7, §8

MMP-2 = biological target: T5, MMP-2 (Homo sapiens, UniProt P08253); assay: as above; assay type: biochemical; settings: read-out: Percent inhibition at 100 µM, MMP-2, 100 µM
T5 construct: purchased AnaSpec (Fremont, CA, USA)
T5 sequence (P08253 110-660): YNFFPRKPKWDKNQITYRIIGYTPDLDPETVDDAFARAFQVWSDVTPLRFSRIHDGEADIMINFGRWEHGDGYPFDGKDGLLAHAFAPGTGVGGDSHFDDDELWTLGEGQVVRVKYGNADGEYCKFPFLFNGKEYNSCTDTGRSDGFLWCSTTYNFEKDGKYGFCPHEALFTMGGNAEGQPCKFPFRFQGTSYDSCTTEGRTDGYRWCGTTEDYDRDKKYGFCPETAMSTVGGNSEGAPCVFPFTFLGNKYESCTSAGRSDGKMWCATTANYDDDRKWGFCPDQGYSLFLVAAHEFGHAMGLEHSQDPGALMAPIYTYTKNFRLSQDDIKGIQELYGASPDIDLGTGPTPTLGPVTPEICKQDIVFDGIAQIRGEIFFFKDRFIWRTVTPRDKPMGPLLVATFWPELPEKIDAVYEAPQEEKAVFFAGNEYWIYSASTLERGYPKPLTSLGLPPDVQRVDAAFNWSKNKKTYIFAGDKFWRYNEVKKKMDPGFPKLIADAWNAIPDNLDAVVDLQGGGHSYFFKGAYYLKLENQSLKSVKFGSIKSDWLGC
Source text: as §1, §6, §7, §8

MMP-3 = biological target: T6, MMP-3 (Homo sapiens, UniProt P08254); assay: as above; assay type: biochemical; settings: read-out: Percent inhibition at 100 µM, MMP-3, 100 µM
T6 construct: purchased AnaSpec (Fremont, CA, USA)
T6 sequence (P08254 100-477): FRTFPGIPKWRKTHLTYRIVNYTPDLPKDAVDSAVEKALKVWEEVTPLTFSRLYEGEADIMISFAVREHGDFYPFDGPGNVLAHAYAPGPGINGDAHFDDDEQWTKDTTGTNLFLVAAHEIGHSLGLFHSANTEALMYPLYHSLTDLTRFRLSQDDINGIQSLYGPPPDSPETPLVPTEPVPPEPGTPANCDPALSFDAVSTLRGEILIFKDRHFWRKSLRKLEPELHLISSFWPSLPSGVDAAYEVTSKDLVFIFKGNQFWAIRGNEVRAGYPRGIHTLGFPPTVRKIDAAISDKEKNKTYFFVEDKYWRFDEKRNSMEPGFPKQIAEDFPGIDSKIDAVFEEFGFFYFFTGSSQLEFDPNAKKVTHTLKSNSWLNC
Source text: as §1, §6, §7, §8

MMP-8 = biological target: T7, MMP-8 (Homo sapiens, UniProt P22894); assay: as above; assay type: biochemical; settings: read-out: Percent inhibition at 100 µM, MMP-8, 100 µM
T7 construct: purchased AnaSpec (Fremont, CA, USA)
T7 sequence (P22894 101-467): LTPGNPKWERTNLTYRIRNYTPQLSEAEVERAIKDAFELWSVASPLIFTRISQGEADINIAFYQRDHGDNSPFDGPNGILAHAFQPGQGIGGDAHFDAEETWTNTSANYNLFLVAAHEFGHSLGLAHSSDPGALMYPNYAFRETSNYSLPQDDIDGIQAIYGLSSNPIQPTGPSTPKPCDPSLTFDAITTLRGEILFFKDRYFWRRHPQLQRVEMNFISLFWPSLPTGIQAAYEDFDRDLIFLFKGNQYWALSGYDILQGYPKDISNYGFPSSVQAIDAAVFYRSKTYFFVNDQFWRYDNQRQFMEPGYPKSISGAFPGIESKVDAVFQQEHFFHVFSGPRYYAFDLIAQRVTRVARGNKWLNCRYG
Source text: as §1, §6, §7, §8

LasB = biological target: T8, LasB (Pseudomonas aeruginosa, UniProt Q02RJ6); assay: FRET-based in vitro LasB inhibition (proteolysis) assay; assay type: biochemical, P. aeruginosa PA14
T8 construct: P. aeruginosa PA14 culture supernatant; made in house; host or cells: native secreted enzyme purified from P. aeruginosa PA14 culture supernatant (not recombinant)
T8 sequence (Q02RJ6 198-498): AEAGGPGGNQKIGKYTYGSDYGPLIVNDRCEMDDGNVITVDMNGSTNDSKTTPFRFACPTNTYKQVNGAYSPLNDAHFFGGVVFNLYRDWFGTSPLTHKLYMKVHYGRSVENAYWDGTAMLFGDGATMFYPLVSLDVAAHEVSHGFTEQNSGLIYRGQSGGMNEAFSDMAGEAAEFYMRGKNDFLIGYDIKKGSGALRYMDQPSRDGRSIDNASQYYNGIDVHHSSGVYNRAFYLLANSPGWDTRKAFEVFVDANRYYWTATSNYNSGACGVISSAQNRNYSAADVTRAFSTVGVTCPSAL
Description: The LasB activity of the thiol derivatives 11, 12, 17, 18, 24 and 25 was tested using a functional FRET-based in vitro proteolysis assay (Fig. 4A). […]
as §5
LecA was expressed recombinantly using E. coli pET25-pail, whereas LasB was isolated from P. aeruginosa PA14 culture supernatant as described previously. 1,2 […]
In vitro inhibition assay for LasB
The in vitro inhibition assay was performed as described previously,2 using purified LasB (final concentration 0.3 nM), the fluorogenic substrate 2-aminobenzoyl-Ala-Gly-Leu-Ala-4-nitrobenzylamide (purchased from Peptides International (Louisville, KY, USA) or Vivitide, LLC (Gardner, MA, USA), final concentration 150 µM)) in assay buffer (50 mM Tris, pH 7.2, 2.5 mM CaCl2, 0.075% Pluronic F-127, 5% DMSO). Fluorescence was measured using a CLARIOstar plate reader (BMG Labtech, Ortenberg, Germany). IC50 values were calculated using GraphPad Prism 8 (GraphPad Software, San Diego, CA, USA) from at least three independent experiments performed in duplicate.

HEK293 = assay: Cytotoxicity MTT assay; assay type: cell-based, human; settings: HEK293, at 100 μM
Description: as §2
(§9) Cytotoxicity on human liver (HepG2), kidney (HEK293) and lung (A549) cells were performed
(§10) using MTT assay and measuring the optical density (OD) photometrically at 570 nm in a […]

HepG2 = assay: Cytotoxicity MTT assay; assay type: cell-based, human; settings: HepG2, at 100 μM
Description: as §2, §9, §10

Cytotoxicity MTT assay [3] = assay type: cell-based, human; settings: human
Description: as §2, §9, §10

| SMILES | MIC [1] [µM] | antimicrobial activity (bacterial viability) [1] | cytotoxicity (A549) | IC50 (Cytotoxicity MTT assay [2]) [µM] | IC50 (LecA) [µM] | inhibition at 100 µM (MMP-7) [%] | inhibition at 100 µM (MMP-1) [%] | inhibition at 100 µM (MMP-14) [%] | inhibition at 100 µM (MMP-2) [%] | inhibition at 100 µM (MMP-3) [%] | inhibition at 100 µM (MMP-8) [%] | IC50 (LasB) [µM] | cytotoxicity (HEK293) | cytotoxicity (HepG2) | IC50 (Cytotoxicity MTT assay [3]; HEK293 cells (kidney)) [µM] | IC50 (Cytotoxicity MTT assay [3]; HepG2 cells (liver)) [µM] |
| --- | --- | --- | --- | --- | --- | --- | --- | --- | --- | --- | --- | --- | --- | --- | --- | --- |
| CC(C)CC(S)C(=O)Nc1ccc(S[C@@H]2O[C@H](CO)[C@H](O)[C@H](O)[C@H]2O)cc1 (some centres unmarked) [Compound 12] | > 100 | No antimicrobial activity was detected | no detectable cytotoxicity | > 100 | 19.8 | < 10 | < 10 | 19 ± 5 | 19 ± 3 | < 10 | < 10 | 0.8 | no detectable cytotoxicity | no detectable cytotoxicity | > 100 | > 100 |
| O=C(Nc1ccc(S[C@@H]2O[C@H](CO)[C@H](O)[C@H](O)[C@H]2O)cc1)C(S)Cc1ccccc1 (some centres unmarked) [Compound 11] | > 100 | No antimicrobial activity was detected | no detectable cytotoxicity | > 100 | 18.1 | < 10 | 10 ± 5 | < 10 | < 10 | < 10 | < 10 | 0.3 | no detectable cytotoxicity | no detectable cytotoxicity | > 100 | > 100 |
